# Experimental data from PubChem BioAssay AID2060897 (Molecular Pharmacology Branch, DTP, NCI, 2025).
# pIC50: −log10 of the molar value.
# Tested on: 966289-007-R4-J1-PDC complex spheroid viability
# Test: Anticancer human tumor 966289-007-R4-J1-PDC patient-derived pancreatic adenocarcinoma cell line growth inhibition [RAS]
# Conditions: for pIC50: curve of first compound; for viability, T/C: stronger effect = lower value
# How it was run: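 Tumour cells grown as complex spheroids with HUVEC endothelial cells and mesenchymal stem cells, treated with RAS pathway inhibitor combinations. Each agent spans half-log steps from near clinical Cmax, or 10 microM where Cmax is unknown.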
# [1] = second compound 0.000949 µM, first compound 0.0316 µM
# [2] = second compound 0.000949 µM, first compound 0.1 µM
# [3] = second compound 0.003 µM, first compound 0.0316 µM
# [4] = second compound 0.003 µM, first compound 0.1 µM
# [5] = second compound 0.00949 µM, first compound 0.0316 µM
# [6] = second compound 0.00949 µM, first compound 0.1 µM
# [7] = second compound 0.03 µM, first compound 0.0316 µM
# [8] = second compound 0.03 µM, first compound 0.1 µM
# [9] = second compound 0.0949 µM, first compound 0.0316 µM
# [10] = second compound 0.0949 µM, first compound 0.1 µM
# [11] = second compound 0.3 µM, first compound 0.0316 µM
# [12] = second compound 0.3 µM, first compound 0.1 µM
# 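Note: spheroids exposed to agents for one week before readout.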
# 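Throughout, for viability, T/C: percent viability relative to DMSO vehicle control wells as 100%.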
compound,measurement,setting,value
CC(C)NCC(C(=O)N1CCN(c2ncnc3c2C(C)CC3O)CC1)c1ccc(Cl)cc1 (centres undefined) + CCn1c(-c2cccnc2C(C)OC)c2c3cc(ccc31)N1CCOC(CC(NC(=O)C(C(C)C)N(C)C(=O)C3(F)CCN(C(=O)C#CC(C)(C)N(C)C)CC3)C(=O)N3CCCC(N3)C(=O)OCC(C)(C)C2)C1,pIC50,second compound 0.000949 µM,5.56
same,pIC50,second compound 0.003 µM,5.31
same,pIC50,second compound 0.00949 µM,5.29
same,pIC50,second compound 0.03 µM,5.21
same,pIC50,second compound 0.0949 µM,5.18
same,pIC50,second compound 0.3 µM,5.27
same,"viability, T/C",[1],99.4%
same,"viability, T/C",[2],94.4%
same,"viability, T/C","second compound 0.000949 µM, first compound 0.316 µM",117%
same,"viability, T/C","second compound 0.000949 µM, first compound 1 µM",85.7%
same,"viability, T/C","second compound 0.000949 µM, first compound 3.16 µM",46.3%
same,"viability, T/C","second compound 0.000949 µM, first compound 10 µM",28.5%
same,"viability, T/C",[3],99.2%
same,"viability, T/C",[4],82.3%
same,"viability, T/C","second compound 0.003 µM, first compound 0.316 µM",98.9%
same,"viability, T/C","second compound 0.003 µM, first compound 1 µM",94.6%
same,"viability, T/C","second compound 0.003 µM, first compound 3.16 µM",62.2%
same,"viability, T/C","second compound 0.003 µM, first compound 10 µM",29.4%
same,"viability, T/C",[5],70.3%
same,"viability, T/C",[6],89.2%
same,"viability, T/C","second compound 0.00949 µM, first compound 0.316 µM",97.2%
same,"viability, T/C","second compound 0.00949 µM, first compound 1 µM",114%
same,"viability, T/C","second compound 0.00949 µM, first compound 3.16 µM",62%
same,"viability, T/C","second compound 0.00949 µM, first compound 10 µM",33.2%
same,"viability, T/C",[7],57.3%
same,"viability, T/C",[8],72.6%
same,"viability, T/C","second compound 0.03 µM, first compound 0.316 µM",103%
same,"viability, T/C","second compound 0.03 µM, first compound 1 µM",92.4%
same,"viability, T/C","second compound 0.03 µM, first compound 3.16 µM",62.3%
same,"viability, T/C","second compound 0.03 µM, first compound 10 µM",41.1%
same,"viability, T/C",[9],63.9%
same,"viability, T/C",[10],94.5%
same,"viability, T/C","second compound 0.0949 µM, first compound 0.316 µM",126%
same,"viability, T/C","second compound 0.0949 µM, first compound 1 µM",90.8%
same,"viability, T/C","second compound 0.0949 µM, first compound 3.16 µM",75.6%
same,"viability, T/C","second compound 0.0949 µM, first compound 10 µM",35.9%
same,"viability, T/C",[11],92.5%
same,"viability, T/C",[12],97%
same,"viability, T/C","second compound 0.3 µM, first compound 0.316 µM",107%
same,"viability, T/C","second compound 0.3 µM, first compound 1 µM",99.9%
same,"viability, T/C","second compound 0.3 µM, first compound 3.16 µM",58%
same,"viability, T/C","second compound 0.3 µM, first compound 10 µM",40.4%
CC(C)n1nc(-c2ccc3oc(N)nc3c2)c2c(N)ncnc21 + CCn1c(-c2cccnc2C(C)OC)c2c3cc(ccc31)N1CCOC(CC(NC(=O)C(C(C)C)N(C)C(=O)C3(F)CCN(C(=O)C#CC(C)(C)N(C)C)CC3)C(=O)N3CCCC(N3)C(=O)OCC(C)(C)C2)C1,pIC50,second compound 0.000949 µM,7.61
same,pIC50,second compound 0.003 µM,7.53
same,pIC50,second compound 0.00949 µM,7.54
same,pIC50,second compound 0.03 µM,7.50
same,pIC50,second compound 0.0949 µM,7.53
same,pIC50,second compound 0.3 µM,7.61
same,"viability, T/C","second compound 0.000949 µM, first compound 0.000316 µM",101%
same,"viability, T/C","second compound 0.000949 µM, first compound 0.001 µM",88.1%
same,"viability, T/C","second compound 0.000949 µM, first compound 0.00316 µM",133%
same,"viability, T/C","second compound 0.000949 µM, first compound 0.01 µM",73.4%
same,"viability, T/C",[1],45.9%
same,"viability, T/C",[2],14.3%
same,"viability, T/C","second compound 0.003 µM, first compound 0.000316 µM",82.1%
same,"viability, T/C","second compound 0.003 µM, first compound 0.001 µM",102%
same,"viability, T/C","second compound 0.003 µM, first compound 0.00316 µM",116%
same,"viability, T/C","second compound 0.003 µM, first compound 0.01 µM",75.9%
same,"viability, T/C",[3],50.8%
same,"viability, T/C",[4],15.4%
same,"viability, T/C","second compound 0.00949 µM, first compound 0.000316 µM",67.1%
same,"viability, T/C","second compound 0.00949 µM, first compound 0.001 µM",111%
same,"viability, T/C","second compound 0.00949 µM, first compound 0.00316 µM",95.8%
same,"viability, T/C","second compound 0.00949 µM, first compound 0.01 µM",90.2%
same,"viability, T/C",[5],46.1%
same,"viability, T/C",[6],20.3%
same,"viability, T/C","second compound 0.03 µM, first compound 0.000316 µM",56.9%
same,"viability, T/C","second compound 0.03 µM, first compound 0.001 µM",96.6%
same,"viability, T/C","second compound 0.03 µM, first compound 0.00316 µM",111%
same,"viability, T/C","second compound 0.03 µM, first compound 0.01 µM",91.8%
same,"viability, T/C",[7],50.1%
same,"viability, T/C",[8],15%
same,"viability, T/C","second compound 0.0949 µM, first compound 0.000316 µM",58.4%
same,"viability, T/C","second compound 0.0949 µM, first compound 0.001 µM",96%
same,"viability, T/C","second compound 0.0949 µM, first compound 0.00316 µM",106%
same,"viability, T/C","second compound 0.0949 µM, first compound 0.01 µM",81.3%
same,"viability, T/C",[9],48.4%
same,"viability, T/C",[10],18.2%
same,"viability, T/C","second compound 0.3 µM, first compound 0.000316 µM",115%
same,"viability, T/C","second compound 0.3 µM, first compound 0.001 µM",96.7%
same,"viability, T/C","second compound 0.3 µM, first compound 0.00316 µM",84%
same,"viability, T/C","second compound 0.3 µM, first compound 0.01 µM",89.7%
same,"viability, T/C",[11],38.6%
same,"viability, T/C",[12],16.4%
